Data published in patent publication US11839210B1, “Plant growth promoter with strigolactones regulation activities” (King Abdullah University of Science and Technology, priority 2017, dated 2023).

Test system: Striga hermonthica seeds
Test: Striga hermonthica seed germination bioassay with rice root exudates
Format: in vivo
Description: For the analysis of SLs, one week-old seedlings were further transferred into 50 ml falcon tube (three seedlings per tube) containing Hoagland nutrient solution with K2HPO4·2H2O (+Pi) and grown in the growth cabinet for one week. The rice seedlings were then subjected to phosphate deficiency for another one week period. On the day of root exudates collection, rice seedlings were first treated with 5 μM zaxinone for 6 h and then root exudates and root tissues were collected from each tube for LC-MS/MS analysis and Striga bioassays.
The Striga seed germination bioassay was carried out in the following manner After 10 days of pre-conditioning (30° C. under moisture for 10 days), Striga seeds were supplied with 50 μl of SL collected from root exudates of zaxinone treated and non-treated wild-types and zas mutants. After SLs application, Striga seeds were incubated at 30° C. in the dark for two days. Germinated (seeds with radicle) and non-germinated seeds were counted under a binocular to calculate germination rates (%).

Question: How did the “decrease in germination rate of S. hermonthica seeds vs mock-treated culture medium” value (culture medium from zaxinone treated WT rice) turn out when `CC(=O)/C=C/C=C(C)/C=C/C1=C(C)C[C@@H](O)CC1(C)C` [zaxinone, 3-OH-β-apo-13-carotenone] was run?
Answer: approximately 50%

Question: And the “decreases in germination rates of S. hermonthica seeds vs mock” value (culture medium from zaxinone treated WT rice and zas mutant rice (both together))?
Answer: 40-50%

Question: What about the “decrease in germination rate of S. hermonthica seeds vs mock-treated culture medium” value (culture medium from zaxinone treated zas mutant rice) of the same molecule?
Answer: approximately 40%

Question: And the “germination of Striga seeds exposed to root exudates” value (exudates from zaxinone treated zas mutant (zas/Zax), phosphate-starved, 5 μM)?
Answer: decreased to levels near the germination rates for the wild-type control

Question: And the “germinating activity of root exudates on Striga hermonthica seeds” value (zas exudates, normal phosphorus (+Pi), 5 μM zaxinone, exudates diluted 9 times)?
Answer: decreased germinating activity of zas exudates (zas/Zax) to a level below that of the wild-type sample

Question: And the “lowering of Striga seed germinating activity of root exudates” value (zas mutant exudates, phosphate-starved, 5 μM zaxinone, 6 h)?
Answer: 40%
